Values of other authors, collected in patent US20020132021A1, “Elicited plant products” (priority 1997, published 2002).

Tested on: indole alkaloid pathway
Settings: jasmonic acid addition, dosage studies

## CC/C=C\C[C@H]1C(=O)CC[C@@H]1CC(=O)O [Jasmonic acid]
  increase in the specific yield of ajmalicine: 80%
  increase in the specific yield of horhammericine: 500%
  increase in the specific yield of lochnericine: 150%
  increase in the specific yield of serpentine: 60%
